pIC50: −log10 of the molar value.
Target: T1, human α1H T-type channels (Homo sapiens, UniProt O95180)
T1 construct: expressed in transfected cells; host or cells: HEK 293
Assay: T-type calcium channel block, whole cell patch clamp in HEK cells (α1H)
Assay type: cell-based
Conditions: HEK cells, patch clamp, mainly non-inactivated protocol; values above 10 μM shown as 10 μM; read-out: T-type Calcium Channel Block α1H IC50
Description: T-type calcium channel blocking activity was assayed in human embryonic kidney cells, HEK 293, stably transfected with the T-type calcium channel subunits. Briefly, cells were cultured in Dulbecco's modified eagle medium (DMEM) supplemented with 10% fetal bovine serum, 200 U/ml penicillin and 0.2 mg/ml streptomycin at 37° C. with 5% CO2. At 85% confluency cells were split with 0.25% trypsin/1 mM EDTA and plated at 10% confluency on glass coverslips. […] Fresh DMEM was supplied and the cells transferred to 28° C./5% CO2. Cells were incubated for 1 to 2 days prior to whole cell recording.
Standard patch-clamp techniques were employed to identify blockers of T-type currents. Briefly, previously described HEK cell lines stably expressing human α1G, α1H and α1I T-type channels were used for all the recordings (passage #: 4-20, 37° C., 5% CO2). Whole cell patch clamp experiments were performed using an Axopatch 200B amplifier (Axon Instruments, Burlingame, Calif.) linked to a personal computer equipped with pCLAMP software. Data were analyzed using Clampfit (Axon Instruments) and SigmaPlot 4.0 (Jandel Scientific). To obtain T-type currents, plastic dishes containing semi-confluent cells were positioned on the stage of a ZEISS AXIOVERT S100 microscope after replacing the culture medium with external solution (see below). Whole-cell patches were obtained using pipettes (borosilicate glass with filament, O.D.: 1.5 mm, I.D.: 0.86 mm, 10 cm length), fabricated on a SUTTER P-97 puller with resistance values of ˜5 MΩ (see below for internal solution).
In the non-inactivating protocol, the holding potential is set at −110 mV and with a pre-pulse at −100 mV for 1 second prior to the test pulse at −40 mV for 50 ms.
Test compounds were dissolved in external solution, 0.1-0.01% DMSO. After ˜10 min rest, they were applied by gravity close to the cell using a WPI microfil tubing. The “non-inactivated” pre-pulse was used to examine the resting block of a compound. The “inactivated” protocol was employed to study voltage-dependent block. […] Values are shown in μM and values above 10 μM are simply represented as 10 μM.

T1 sequence (O95180 whole entry): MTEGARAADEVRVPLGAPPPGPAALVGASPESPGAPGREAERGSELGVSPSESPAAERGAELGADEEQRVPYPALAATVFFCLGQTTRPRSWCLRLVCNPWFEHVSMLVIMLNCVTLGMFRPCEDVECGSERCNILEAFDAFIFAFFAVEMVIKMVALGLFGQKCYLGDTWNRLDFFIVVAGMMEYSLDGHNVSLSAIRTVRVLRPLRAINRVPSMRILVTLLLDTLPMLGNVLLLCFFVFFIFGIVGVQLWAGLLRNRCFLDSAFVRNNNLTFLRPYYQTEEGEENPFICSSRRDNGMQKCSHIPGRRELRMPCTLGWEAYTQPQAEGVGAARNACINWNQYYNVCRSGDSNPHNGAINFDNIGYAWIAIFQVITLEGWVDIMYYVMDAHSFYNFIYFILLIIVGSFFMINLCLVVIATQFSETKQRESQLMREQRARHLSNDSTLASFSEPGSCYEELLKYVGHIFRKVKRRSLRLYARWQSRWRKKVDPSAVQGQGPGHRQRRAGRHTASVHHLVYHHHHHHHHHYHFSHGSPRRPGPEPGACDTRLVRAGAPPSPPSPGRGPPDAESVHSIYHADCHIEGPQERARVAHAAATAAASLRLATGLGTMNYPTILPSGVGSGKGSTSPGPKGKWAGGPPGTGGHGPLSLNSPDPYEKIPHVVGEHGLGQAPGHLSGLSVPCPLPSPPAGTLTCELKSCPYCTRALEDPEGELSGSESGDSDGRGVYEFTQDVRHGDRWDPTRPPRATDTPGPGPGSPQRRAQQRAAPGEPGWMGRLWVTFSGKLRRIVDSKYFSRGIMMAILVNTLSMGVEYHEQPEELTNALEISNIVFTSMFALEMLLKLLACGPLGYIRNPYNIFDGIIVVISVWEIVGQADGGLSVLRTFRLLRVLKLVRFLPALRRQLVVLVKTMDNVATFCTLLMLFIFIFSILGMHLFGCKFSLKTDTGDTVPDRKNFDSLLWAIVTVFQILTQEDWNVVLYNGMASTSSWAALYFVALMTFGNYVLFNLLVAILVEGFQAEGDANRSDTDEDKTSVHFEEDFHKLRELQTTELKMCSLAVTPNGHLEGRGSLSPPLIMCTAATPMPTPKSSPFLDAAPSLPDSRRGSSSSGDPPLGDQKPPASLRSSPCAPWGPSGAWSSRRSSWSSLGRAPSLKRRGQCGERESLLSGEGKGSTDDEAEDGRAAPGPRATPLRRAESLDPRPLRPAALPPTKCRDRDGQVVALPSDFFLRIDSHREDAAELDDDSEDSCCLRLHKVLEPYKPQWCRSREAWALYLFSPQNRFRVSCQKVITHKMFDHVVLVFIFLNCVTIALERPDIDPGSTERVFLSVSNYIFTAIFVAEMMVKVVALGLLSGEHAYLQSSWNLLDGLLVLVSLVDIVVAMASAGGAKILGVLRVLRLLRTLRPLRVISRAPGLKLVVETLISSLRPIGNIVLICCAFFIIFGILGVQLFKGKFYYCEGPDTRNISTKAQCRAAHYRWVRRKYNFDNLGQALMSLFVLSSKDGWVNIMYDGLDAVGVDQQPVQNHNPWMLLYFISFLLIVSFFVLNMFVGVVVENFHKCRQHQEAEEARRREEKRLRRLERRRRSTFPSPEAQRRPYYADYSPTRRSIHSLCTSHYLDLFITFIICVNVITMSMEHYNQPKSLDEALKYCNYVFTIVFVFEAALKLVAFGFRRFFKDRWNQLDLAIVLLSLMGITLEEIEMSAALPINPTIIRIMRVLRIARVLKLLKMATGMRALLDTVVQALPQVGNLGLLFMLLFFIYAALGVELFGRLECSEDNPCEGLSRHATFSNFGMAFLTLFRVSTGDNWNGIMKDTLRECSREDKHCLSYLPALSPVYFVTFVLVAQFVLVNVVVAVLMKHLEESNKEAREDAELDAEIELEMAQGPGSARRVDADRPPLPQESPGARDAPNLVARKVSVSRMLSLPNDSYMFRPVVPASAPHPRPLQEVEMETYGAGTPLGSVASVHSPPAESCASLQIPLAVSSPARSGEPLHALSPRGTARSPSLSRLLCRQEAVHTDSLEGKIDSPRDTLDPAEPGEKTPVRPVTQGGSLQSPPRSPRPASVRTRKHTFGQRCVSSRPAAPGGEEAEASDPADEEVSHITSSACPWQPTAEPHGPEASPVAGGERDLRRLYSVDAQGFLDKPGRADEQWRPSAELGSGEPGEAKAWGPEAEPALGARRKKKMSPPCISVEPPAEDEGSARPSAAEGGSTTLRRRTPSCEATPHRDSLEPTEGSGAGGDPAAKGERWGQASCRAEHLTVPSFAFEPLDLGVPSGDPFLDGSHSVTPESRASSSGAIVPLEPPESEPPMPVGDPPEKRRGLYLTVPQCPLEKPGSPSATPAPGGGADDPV

Compound	pIC50
COc1cc(Cl)cc(C(=O)N2CC(N3CCC(CNC(=O)c4cc(F)cc(Cl)c4)CC3)C2)c1 [Compound 600, 3-chloro-N-((1-(1-(3-chloro-5-methoxybenzoyl)azetidin-3-yl)piperidin-4-yl)methyl)-5-fluoro-benzamide]	5.69
C[C@H]1CC[C@H](C(=O)NCCN2CCC(CNC(=O)c3cc(C(F)(F)F)cc(C(F)(F)F)c3)CC2)CC1 [Compound 64, N-((1-(2-((1r,4r)-4-methylcyclohexanecarboxamido)ethyl)piperidin-4-yl)methyl)-3,5-bis(trifluoromethyl)benzamide]	6.70
O=C(NCC1CCN(C2CN(C(=O)c3cc(F)cc(C(F)(F)F)c3)C2)CC1)c1cc(F)cc(Cl)c1 [Compound 604, 3-chloro-5-fluoro-N-((1-(1-(3-fluoro-5-(trifluoromethyl)benzoyl)azetidin-3-yl)piperidin-4-yl)methyl)benzamide]	5.72
COC1CCN(C(=O)CN2CCC(CNC(=O)c3cc(C(F)(F)F)cc(C(F)(F)F)c3)CC2)CC1 [Compound 103, N-((1-(2-(4-methoxypiperidin-1-yl)-2-oxoethyl)piperidin-4-yl)methyl)-3,5-bis(trifluoromethyl)benzamide]	5.92
O=C(NCC1CCN(CC(=O)N2CCCC(O)C2)CC1)c1cc(C(F)(F)F)cc(C(F)(F)F)c1 (stereo not shown) [Compound 98, N-((1-(2-(3-hydroxypiperidin-1-yl)-2-oxoethyl)piperidin-4-yl)methyl)-3,5-bis(trifluoromethyl)benzamide]	5.44
CC(C)(O)C(=O)NCCN1CCC(CNC(=O)c2cc(C(F)(F)F)cc(C(F)(F)F)c2)CC1 [Compound 65, N-((1-(2-(2-hydroxy-2-methylpropanamido)ethyl)piperidin-4-yl)methyl)-3,5-bis(trifluoromethyl) benzamide]	5.20
CC(C)(C)OC(=O)N1CCC(O)(CN2CCC(CNC(=O)c3cc(F)cc(Cl)c3)CC2)CC1 [Compound 598, tert-butyl 4-((4-((3-chloro-5-fluorobenzamido)methyl)piperidin-1-yl)methyl)-4-hydroxypiperidine-1-carboxylate]	5.78
CN(C(=O)CN1CCC(CNC(=O)c2cc(Cl)cc(Br)c2)CC1)C1(C)CCC1 [Compound 595, 3-bromo-5-chloro-N-((1-(2-(methyl(1-methylcyclobutyl)amino)-2-oxoethyl)piperidin-4-yl)methyl)benzamide]	7.10
O=C(NCC1CCN(CC(=O)N2CCCC2C(F)(F)F)CC1)c1cc(C(F)(F)F)cc(C(F)(F)F)c1 (stereo not shown) [Compound 107, N-((1-(2-oxo-2-(2-(trifluoromethyl)pyrrolidin-1-yl)ethyl)piperidin-4-yl)methyl)-3,5-bis(trifluoromethyl) benzamide]	6.80
CC(C)(C)OC(=O)N1CC(N2CCC(CNC(=O)c3cc(F)cc(Cl)c3)CC2)C1 [Compound 597, tert-buyl 3-(4-((3-chloro-5-fluorobenzamido)methyl)piperidin-1-yl)azetidine-1-carboxylate]	5.19
CCC1CCCCN1C(=O)CN1CCC(CNC(=O)c2cc(C(F)(F)F)cc(C(F)(F)F)c2)CC1 (stereo not shown) [Compound 100, N-((1-(2-(2-ethylpiperidin-1-yl)-2-oxoethyl)piperidin-4-yl)methyl)-3,5-bis(trifluoromethyl)benzamide]	7.00
O=C(CCC(F)(F)F)NCCN1CCC(CNC(=O)c2cc(C(F)(F)F)cc(C(F)(F)F)c2)CC1 [Compound 66, N-((1-(2-(4,4,4-trifluorobutanamido)ethyl)piperidin-4-yl)methyl)-3,5-bis(trifluoromethyl) benzamide]	6.43
O=C(CN1CCC(CNC(=O)c2cc(C(F)(F)F)cc(C(F)(F)F)c2)CC1)NC1CC1 [Compound 95, N-((1-(2-(cyclopropylamino)-2-oxoethyl)piperidin-4-yl)methyl)-3,5-bis(trifluoromethyl)benzamide]	< 5.00
CC(C)(C)NC(=O)N1CC(N2CCC(CNC(=O)c3cc(F)cc(Cl)c3)CC2)C1 [Compound 612, N-tert-butyl-3-(4-((3-chloro-5-fluorobenzamido)methyl)piperidin-1-yl)azetidin-1-carboxamide]	< 5.00
O=C(NCC1CCN(CC(=O)N2CCC(C(F)(F)F)CC2)CC1)c1cc(C(F)(F)F)cc(C(F)(F)F)c1 [Compound 108, N-((1-(2-oxo-2-(4-(trifluoromethyl)piperidin-1-yl)ethyl)piperidin-4-yl)methyl)-3,5-bis(trifluoromethyl) benzamide]	6.60
O=C(NCC1CCN(C2CN(C(=O)C3(C(F)(F)F)CC3)C2)CC1)c1cc(F)cc(Cl)c1 [Compound 609, 3-chloro-5-fluoro-N-((1-(1-(1-(trifluoromethyl)cyclopropanecarbonyl)azetidin-3-yl)piperidin-4-yl)methyl) benzamide]	5.52
O=C(CN1CCC(CNC(=O)c2cc(C(F)(F)F)cc(C(F)(F)F)c2)CC1)NC1CCCC1 [Compound 92, N-((1-(2-(cyclopentylamino)-2-oxoethyl)piperidin-4-yl)methyl)-3,5-bis(trifluoromethyl)benzamide]	7.22
COc1cc(Cl)cc(C(=O)NCC2CCN(CC(=O)N(C)C(C)(C)C)CC2)c1 [Compound 596, N-((1-(2-(tert-butyl(methyl)amino)-2-oxoethyl)piperidin-4-yl)methyl)-3-chloro-5-methoxy-benzamide]	6.80
COCCC(=O)NCCN1CCC(CNC(=O)c2cc(C(F)(F)F)cc(C(F)(F)F)c2)CC1 [Compound 68, N-((1-(2-(3-methoxypropanamido)ethyl)piperidin-4-yl)methyl)-3,5-bis(trifluoromethyl) benzamide]	5.12
O=C(NCC1CCN(CC(=O)N2CCC(O)CC2)CC1)c1cc(C(F)(F)F)cc(C(F)(F)F)c1 [Compound 102, N-((1-(2-(4-hydroxypiperidin-1-yl)-2-oxoethyl)piperidin-4-yl)methyl)-3,5-bis(trifluoromethyl)benzamide]	< 5.00
CN(C(=O)CN1CCC(CNC(=O)c2cc(C(F)(F)F)cc(C(F)(F)F)c2)CC1)C1CCCCC1 [Compound 101, N-((1-(2-(cyclohexyl(methyl)amino)-2-oxoethyl)piperidin-4-yl)methyl)-3,5-bis(trifluoromethyl)benzamide]	6.85
CN(C(=O)CN1CCC(CNC(=O)c2cc(Cl)cc(Cl)c2)CC1)C1(C)CCC1 [Compound 592, 3,5-dichloro-N-((1-(2-(methyl(1-methylcyclobutyl)amino)-2-oxoethyl)piperidin-4-yl)methyl) benzamide]	7.10
O=C(NCC1CCN(CC(=O)N2CCC(CO)CC2)CC1)c1cc(C(F)(F)F)cc(C(F)(F)F)c1 [Compound 106, N-((1-(2-(4-(hydroxymethyl)piperidin-1-yl)-2-oxoethyl)piperidin-4-yl)methyl)-3,5-bis(trifluoromethyl)benzamide]	5.25
O=C(CC1CC1)NCCN1CCC(CNC(=O)c2cc(C(F)(F)F)cc(C(F)(F)F)c2)CC1 [Compound 63, N-((1-(2-(2-cyclopropylacetamido)ethyl)piperidin-4-yl)methyl)-3,5-bis(trifluoromethyl)benzamide]	6.37
CC1(C(=O)N2CC(N3CCC(CNC(=O)c4cc(F)cc(Cl)c4)CC3)C2)CCC(F)(F)CC1 [Compound 611, 3-chloro-N-((1-(1-(4,4-difluoro-1-methylcyclohexanecarbonyl)azetidin-3-yl)piperidin-4-yl)methyl)-5-fluorobenzamide]	6.54

Source: US8569344B2, “N-piperidinyl acetamide derivatives as calcium channel blockers” (Zalicus Pharmaceuticals Ltd., priority 2008, dated 2013)
